# Like-named read-outs stand apart in the source and are kept apart here. Where a SMILES comes first, the peptide text is derived from it. Bridges are numbered along the chain shown (N, C = ends). Where no end group is shown, it is not given here. [ ]: non-standard residue; d: D form. The star is where a group is joined. X1 = CC[C@H](C)CCCCC(=O)*; Dab = NCC[C@H](N)C(=O)O
# Columns and labels:
# [1] = system: P. aeruginosa; conditions: at one sixteenth the minimum inhibitory concentration (MIC); cited from earlier work
# Source text: Cationic host defense (antimicrobial) peptides represent a novel alternative to conventional antibiotics. […] Similar results were subsequently shown by other groups. This encouraged t ...
# [2] = system: B. ambifaria CEP0996 (VII); conditions: 18 h
# Procedure: (§1) In addition to the wild type lab isolates Pseudomonas aeruginosa strains PAO1 and PA14, a variety of cystic fibrosis clinical isolates of P. aeruginosa and Burkholderia cepacia complex strains were utilized (Table 1). Planktonic cells from each of the P. aeruginosa and B. cepacia strains were grown in BM2 glucose or cation-adjusted Mueller-Hinton. The minimal inhibitory concentration (MIC) for peptides in brain-heart infusion (BHI) was assessed by the broth microdilution method with minor modifications for cationic peptides. […] MIC assays were performed in sterile 96-well polypropylene microtiter plates. […] The plates were incubated at 37 °C for 18 h.
# [3] = system: P. aeruginosa C4278 (Mucoid)
# Procedure: as §1
# [4] = system: P. aeruginosa 3330 (Classic)
# Procedure: as §1
# [5] = system: B. cenocepacia CEP509 (IIIb); conditions: 18 h
# Procedure: as §1
# [6] = system: P. aeruginosa 7632 (Classic)
# Procedure: as §1
# [7] = system: P. aeruginosa 2631 (Classic)
# Procedure: as §1
# [8] = system: P. aeruginosa 3195 (Classic)
# Procedure: as §1
# [9] = system: B. dolosa CEP0021 (VI); conditions: 18 h
# Procedure: as §1
# [10] = system: B. cenocepacia CEP0055 (IIIb); conditions: 18 h
# Procedure: as §1
# [11] = system: P. aeruginosa 2639 (Mucoid)
# Procedure: as §1
# [12] = system: P. aeruginosa 1172 (Classic)
# Procedure: as §1
# [13] = system: P. aeruginosa 4608 (Mucoid)
# Procedure: as §1
# [14] = system: B. cenocepacia C5424 (IIIa); conditions: 18 h
# Procedure: as §1
# [15] = system: P. aeruginosa PA01; conditions: 18 h
# Procedure: as §1
# [16] = system: P. aeruginosa C4276 (Classic)
# Procedure: as §1
# [17] = system: B. multivorans D2661 (Genomovar II); conditions: 18 h
# Procedure: as §1
# [18] = system: B. cenocepacia 4813 (IIIa); conditions: 18 h
# Procedure: as §1
# [19] = system: P. aeruginosa 4020 (Classic)
# Procedure: as §1
# [20] = system: P. aeruginosa PA14
# Procedure: as §1
# [21] = system: P. aeruginosa C2773 (Classic)
# Procedure: as §1
# [22] = system: B. stabilis C6061 (IV); conditions: 18 h
# Procedure: as §1
# [23] = system: P. aeruginosa 7633 (Entire)
# Procedure: as §1
# [24] = system: planktonic cells of Burkholderia strains
# Procedure: as §1
# [25] = system: monocyte chemotactic protein-1 (MCP-1) production by human peripheral blood mononuclear cells; test: MCP-1 induction in PBMCs, sandwich ELISA; assay type: cell-based; conditions: 24 h; for level of MCP-1 induction at 100 µg/mL: 100 µg/mL peptide; for MCP-1 induction: 20 and 100 µg/mL peptide, cf. untreated control
# Procedure: (§2) (A) Human peripheral blood mononuclear cells were subjected to 20 µg/mL and 100 µg/mL of HE1, HE4, HE10, HE12, and 1018 for 24 h. Monocyte chemotactic protein-1 (MCP-1) production was assessed using sandwich enzyme linked immunosorbent assay (ELISA). The level of MCP-1 induction was similar for HE1, HE4, HE10, and 1018 at 100 µg/mL; (B) LPS (20 ng/mL) was co-administered with 20 µg/mL of each of the aforementioned peptides for 24 h. The tumor necrosis factor-alpha (TNF-α) production in response to both stimulants was assessed using enzyme linked immunosorbent assay (ELISA) and compared to lipopolysaccharides (LPS) alone. […] Lactate dehydrogenase release from peripheral blood mononuclear cells (PBMCs) was measured to assess the toxicity of 20 µg/mL and 100 µg/mL of 1018 and its derivatives.
# These studies were done as described previously. Briefly, human peripheral blood mononuclear cells (PBMCs) were isolated from the blood of healthy individuals obtained under University of British Columbia (UBC) human ethics approval. PBMCs were diluted to 2 × 10^6 cells/ml in RPMI-1640 medium (Gibco®, Grand Island, NY, USA) supplemented with 10% fetal bovine serum (FBS). Subsequently, 250 µL of cells were seeded in each well of a 48-well dish. […] To assess chemokine induction after 24 h, the levels of chemokine MCP-1 (CCL2) were assessed in the supernatants three times independently using a sandwich ELISA kit (BioSource International, Grand Island, NY, USA). To look at the anti-inflammatory activity of the peptides in suppressing LPS-induced TNFα, P. aeruginosa LPS was added at a final concentration of 20 ng/mL as well as peptides at 20 μg/mL or 100 μg/mL. Secretion of TNF-α was monitored by capture ELISA (eBiosciences, San Diego, CA, USA) after 24 h.
# [26] = system: P. aeruginosa PA14; test: Anti-biofilm activity, BioFlux apparatus; assay type: cell-based, Pseudomonas aeruginosa; conditions: 15 µg/mL peptide
# [27] = system: P. aeruginosa PA14; test: Flow cell biofilm assay, confocal microscopy; assay type: cell-based, Pseudomonas aeruginosa; conditions: 72 h, 37 °C, inhibition and eradication conditions, Syto-9/PI confocal imaging
# Procedure: For biofilm prevention conditions, the peptides were added to the medium from the beginning of the experiment. For eradication experiments, bacteria were allowed to develop structured 2-day-old biofilms prior to peptide and antibiotics treatment for the following 24 h.
# Biofilms were grown for 72 h, in the absence or presence of the desired concentration of the different peptides, at 37 °C in flow chambers with channel dimensions of 1 by 4 by 40 mm, and then stained and examined by confocal microscopy, as described previously. For biofilm prevention studies the peptide was present in the flow-through medium throughout the biofilm growth while for eradication experiments, biofilms were allowed to grow for 2 days, before treating them with peptide for the last 24 h of the experiment.
# [28] = system: TNF-α production by human peripheral blood mononuclear cells; test: LPS-induced TNF-α production in PBMCs, ELISA; assay type: cell-based; conditions: LPS-stimulated PBMCs, Figure 4B
# Procedure: as §2
# These studies were done as described previously. Briefly, human peripheral blood mononuclear cells (PBMCs) were isolated from the blood of healthy individuals obtained under University of British Columbia (UBC) human ethics approval. […] To assess chemokine induction after 24 h, the levels of chemokine MCP-1 (CCL2) were assessed in the supernatants three times independently using a sandwich ELISA kit (BioSource International, Grand Island, NY, USA). […] Secretion of TNF-α was monitored by capture ELISA (eBiosciences, San Diego, CA, USA) after 24 h.
# [29] = system: methicillin resistant Staphylococcus aureus (MRSA); test: Biofilm inhibition in 96-well plates, static conditions; assay type: cell-based; conditions: polypropylene microtiter plates, BM2, 24 h, 37 °C, crystal violet, absorbance 595 nm
# Procedure: Figure 3 Biofilm inhibitory activity against methicillin resistant Staphylococcus aureus (MRSA) in 96-well plates. […] Statistical significance was assessed using one-way ANOVA (*, p < 0.05; ***, p < 0.001; ****, p < 0.0001).
# [30] = system: B. cenocepacia 4813; test: Anti-biofilm activity of 1018 derivatives (Table 4); assay type: cell-based, Burkholderia cenocepacia; conditions: 15 µg/mL peptide
# Procedure: Biofilm formation was initially analyzed using a static abiotic solid surface assay as described elsewhere [21]. Dilutions (1/100) of overnight cultures were incubated in BM2 glucose medium (62 mM potassium phosphate buffer (pH 7), 7 mM (NH4)2SO4, 2 mM MgSO4, 10 μM FeSO4, 0.4% (wt/vol) glucose, 0.5% (wt/vol) Casamino Acids) in polypropylene microtiter plates (Fisher Scientific, Waltham, MA, USA) in the presence of the different peptides for 22 h at 37 °C. Planktonic cells were removed and biofilm cells adhering to the side of the tubes were stained with crystal violet, extracted into ethanol, and the optical density at 595 nm (OD595) measured using a microtiter plate reader (Bio-Tek Instruments Inc., Winooski, VT, USA). Peptides were added at time zero (prior to adding the diluted, overnight cultures) at various concentrations, and the decrease in biofilm formation was recorded at 22 h for P. aeruginosa, Burkholderia and Methicillin-resistant Staphylococcus aureus isolates.
# [31] = planktonic cells, broth microdilution, BHI, 5 × 10^5 CFU/mL, 37 °C, performed at least three times
# [32] = planktonic cells, broth microdilution, BHI, 5 × 10^5 CFU/mL, 37 °C, 18 h, performed at least three times
compound,measurement,setting,value
CC[C@H](C)[C@H](NC(=O)[C@H](CCCCN)NC(=O)[C@H](CCC(=O)O)NC(=O)[C@H](CCCCN)NC(=O)[C@H](CO)NC(=O)[C@H](CCCCN)NC(=O)[C@H](CCCNC(=N)N)NC(=O)[C@H](Cc1ccccc1)NC(=O)[C@H](Cc1ccccc1)NC(=O)[C@H](CC(=O)O)NC(=O)CNC(=O)[C@H](CC(C)C)NC(=O)[C@@H](N)CC(C)C)C(=O)NCC(=O)N[C@@H](CCCCN)C(=O)N[C@@H](CCC(=O)O)C(=O)N[C@@H](Cc1ccccc1)C(=O)N[C@@H](CCCCN)C(=O)N[C@@H](CCCNC(=N)N)C(=O)N[C@H](C(=O)N[C@H](C(=O)N[C@@H](CCC(N)=O)C(=O)N[C@@H](CCCNC(=N)N)C(=O)N[C@H](C(=O)N[C@@H](CCCCN)C(=O)N[C@@H](CC(=O)O)C(=O)N[C@@H](Cc1ccccc1)C(=O)N[C@@H](CC(C)C)C(=O)N[C@@H](CCCNC(=N)N)C(=O)N[C@@H](CC(N)=O)C(=O)N[C@@H](CC(C)C)C(=O)N[C@H](C(=O)N1CCC[C@H]1C(=O)N[C@@H](CCCNC(=N)N)C(=O)N[C@H](C(=O)N[C@@H](CCC(=O)O)C(=O)N[C@@H](CO)C(=O)O)[C@@H](C)O)C(C)C)[C@@H](C)CC)C(C)C)[C@@H](C)CC [LL-37],decrease in biofilm formation,[1],50%
same,MIC,[2]; [31],>512 µg/mL
same,MIC,[3]; [32],>256 µg/mL
same,MIC,[4]; [32],>128 µg/mL
same,MIC,[5]; [31],>512 µg/mL
same,MIC,[6]; [32],256 µg/mL
same,MIC,[7]; [32],>256 µg/mL
same,MIC,[8]; [32],64 µg/mL
same,MIC,[9]; [31],>512 µg/mL
same,MIC,[10]; [31],>512 µg/mL
same,MIC,[11]; [32],>128 µg/mL
same,MIC,[12]; [32],>128 µg/mL
same,MIC,[13]; [32],>128 µg/mL
same,MIC,[14]; [31],>256 µg/mL
same,MIC,[15]; [31],32 µg/mL
same,MIC,[16]; [32],256 µg/mL
same,MIC,[17]; [31],>512 µg/mL
same,MIC,[18]; [31],>256 µg/mL
same,MIC,[19]; [32],>128 µg/mL
same,MIC,[20]; [32],32 µg/mL
same,MIC,[21]; [32],256 µg/mL
same,MIC,[22]; [31],>512 µg/mL
same,MIC,[23]; [32],>128 µg/mL
CC[C@H](C)CCCCC(=O)N[C@@H](CCN)C(=O)N[C@H](C(=O)N[C@@H](CCN)C(=O)N[C@H]1CCNC(=O)[C@H]([C@@H](C)O)NC(=O)[C@H](CCN)NC(=O)[C@H](CCN)NC(=O)[C@H](CC(C)C)NC(=O)[C@@H](Cc2ccccc2)NC(=O)[C@H](CCN)NC1=O)[C@@H](C)O [Polymyxin B] (X1-[Dab]T[Dab][Dab][Dab][dF]L[Dab][Dab]T; lactam 4-C (inferred); N-terminus assumed),MIC,[2],>128 µg/mL
same,MIC,"[3]; C4278 (Mucoid, 18 h)",2 µg/mL
same,MIC,"[4]; 3330 (Classic, 18 h)",2 µg/mL
same,MIC,[5],>128 µg/mL
same,MIC,"[6]; 7632 (Classic, 18 h)",2 µg/mL
same,MIC,"[7]; 2631 (Classic, 18 h)",4 µg/mL
same,MIC,"[8]; 3195 (Classic, 18 h)",2 µg/mL
same,MIC,[9],>128 µg/mL
same,MIC,[10],>128 µg/mL
same,MIC,"[11]; 2639 (Mucoid, 18 h)",2 µg/mL
same,MIC,"[12]; 1172 (Classic, 18 h)",2 µg/mL
same,MIC,"[13]; 4608 (Mucoid, 18 h)",2 µg/mL
same,MIC,[14],>128 µg/mL
same,MIC,[15],2 µg/mL
same,MIC,"[16]; C4276 (Classic, 18 h)",2 µg/mL
same,MIC,[17],>128 µg/mL
same,MIC,[18],>128 µg/mL
same,MIC,"[19]; 4020 (Classic, 18 h)",2 µg/mL
same,MIC,"[20]; PA14, 18 h",2 µg/mL
same,MIC,"[21]; C2773 (Classic, 18 h)",4 µg/mL
same,MIC,[22],>128 µg/mL
same,MIC,"[23]; 7633 (Entire, 18 h)",2 µg/mL
KRWWKWIRW-NH2 (C-terminus assumed) [HHC-10],MIC against planktonic cells of Burkholderia strains,[24],> 256 µg/mL
KRWWKWWRR-NH2 (C-terminus assumed) [HHC-36],MIC against planktonic cells of Burkholderia strains,[24],> 256 µg/mL
RFKRVARVIW [HE12],MIC,"[20]; PA14, 18 h",80 µg/mL
RRWIRVAVILRV [HE1],level of MCP-1 induction at 100 µg/mL,[25],similar
same,MCP-1 induction,[25],significantly induced MCP-1
same,Anti-Biofilm Activity (% Decrease in Biofilm),[26],93%
"VRLI--VRIWRR [HE10, 1018 derivative, truncated to remove hydrophobic patch]",anti-biofilm activity in flow cells,[27],strong anti-biofilm activity comparable with that of 1018
same,suppression of TNF-α production,[28],strongly suppressing the production of TNF-α
same,biofilm inhibitory activity against MRSA compared to 1018,[29],notably more active
same,level of MCP-1 induction at 100 µg/mL,[25],similar
same,MCP-1 induction,[25],significantly induced MCP-1
"VRLIRAVRAWRV [HE2, 1018 derivative, break hydrophobicity; maintain charge]",Anti-Biofilm Activity (% Decrease in Biofilm),[30],24%
same,Anti-Biofilm Activity (% Decrease in Biofilm),[26],42%
VRLIWAVRIWRR [HE4],MIC,"[20]; PA14, 18 h",80 µg/mL
"VRWARVARILRV [HE3, 1018 derivative, reverse of HE2]",Anti-Biofilm Activity (% Decrease in Biofilm),[30],21%
same,Anti-Biofilm Activity (% Decrease in Biofilm),[26],31%
